From patent US20130217664A1, “NOVEL COMPOUNDS USEFUL FOR THE TREATMENT OF DEGENERATIVE AND INFLAMMATORY DISEASES” (priority 2012, published 2013)

Tests used:
human TYK2 = target: T1, human TYK2 (Homo sapiens, UniProt P29597); assay: TYK2 inhibition assay; type: biochemical; details: recombinant human TYK2 catalytic domain, polyGT substrate
T1 construct: catalytic domain (amino acids 871-1187; catalog number 08-147); purchased Carna Biosciences 08-147
T1 sequence (P29597 871-1187): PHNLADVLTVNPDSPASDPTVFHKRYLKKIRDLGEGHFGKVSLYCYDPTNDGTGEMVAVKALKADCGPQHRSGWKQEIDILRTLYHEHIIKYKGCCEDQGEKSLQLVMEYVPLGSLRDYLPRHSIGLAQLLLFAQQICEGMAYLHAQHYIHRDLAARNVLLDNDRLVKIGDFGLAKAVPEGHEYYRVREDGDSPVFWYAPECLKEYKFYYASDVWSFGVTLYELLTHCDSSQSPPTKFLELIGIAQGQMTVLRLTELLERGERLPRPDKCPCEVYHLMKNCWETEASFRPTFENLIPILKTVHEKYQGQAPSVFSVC
Outline: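 Radiometric kinase reaction run 90 min at 30 °C, stopped with phosphoric acid, washed and scintillation-counted.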

human JAK3 = target: T2, human JAK3 (Homo sapiens, UniProt P52333); assay: JAK3 inhibition assay; type: biochemical; details: recombinant human JAK3 catalytic domain; polyGT substrate
T2 construct: catalytic domain (amino acids 781-1124; catalog number PV3855); purchased Invitrogen PV3855
Outline: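 Radiometric kinase assay: 0.5 ng JAK3 with 2.5 μg polyGT in Tris pH 7.5/MgCl2 buffer, 1 μM ATP plus 0.25 μCi 33P-γ-ATP, 1% DMSO, 45 min at 30 °C, stopped with phosphoric acid.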

T2 sequence (P52333 781-1124): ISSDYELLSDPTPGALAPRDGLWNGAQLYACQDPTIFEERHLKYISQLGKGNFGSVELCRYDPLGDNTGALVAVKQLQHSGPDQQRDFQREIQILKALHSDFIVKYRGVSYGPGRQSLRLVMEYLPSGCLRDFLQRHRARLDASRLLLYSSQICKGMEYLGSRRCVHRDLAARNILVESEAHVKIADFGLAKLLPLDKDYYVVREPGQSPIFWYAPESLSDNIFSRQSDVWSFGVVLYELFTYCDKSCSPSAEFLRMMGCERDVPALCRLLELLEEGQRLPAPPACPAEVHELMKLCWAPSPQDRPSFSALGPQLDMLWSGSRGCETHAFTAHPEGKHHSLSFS

SMILES	IC50 (human TYK2) [nM]	IC50 (human JAK3) [nM]
Cc1cc(-c2cncnc2)ccc1N(C)c1cc2c(cn1)ncn2C [Compound 72, N,1-dimethyl-N-(2-methyl-4-(pyrimidin-5-yl)phenyl)-1H-imidazo[4,5-c]pyridin-6-amine]	501 to 1000	> 1000
CN(c1ccc(CC#N)cc1)c1cc2c(cn1)ncn2C [Compound 26, 2-(4-(Methyl(1-methyl-1H-imidazo[4,5-c]pyridin-6-yl)amino)phenyl)acetonitrile]	101 to 500	> 1000
CCc1cc(C#N)cc(F)c1N(C)c1cc2c(cn1)ncn2C [Compound 322, 3-Ethyl-5-fluoro-4-[methyl-(1-methyl-M-imidazo[4,5-c]pyridin-6-yl)-amino]-benzonitrile]	101 to 500	> 1000
COc1cc(N2CCOCC2)ncc1N(C)c1cc2c(cn1)ncn2C [Compound 313, (4-Methoxy-6-morpholin-4-yl-pyridin-3-yl)-methyl-(1-methyl-1H-imidazo[4,5-c]pyridine-6-yl)-amine]	101 to 500	501 to 1000
CCc1ccccc1N(CC)c1cc2c(cn1)ncn2C [Compound 34, N-Ethyl-N-(2-ethylphenyl)-1-methyl-1H-imidazo[4,5-c]pyridin-6-amine]	0.01 to 100	501 to 1000
Cc1ccc(OCC(C)C)cc1N(C)c1cc2c(cn1)ncn2C [Compound 63, N-(5-isobutoxy-2-methylphenyl)-N,1-dimethyl-1H-imidazo[4,5-c]pyridin-6-amine]	> 1000	> 1000
COc1ccc(S(=O)(=O)N2CCCCC2)cc1N(C)c1cc2c(cn1)ncn2C [Compound 314, [2-Methoxy-5-(piperidine-1-sulfonyl)-phenyl]-methyl-(1-methyl-1H-imidazo[4,5-d]pyridin-6-yl)-amine]	> 1000	> 1000
CCc1cc(CNS(=O)(=O)C(F)F)cc(F)c1N(C)c1cc2c(cn1)ncn2C [Compound 324, N-{3-Ethyl-5-fluoro-4-[methyl-(1-methyl-1H-imidazo[4,5-c]pyridin-6-yl)-amino]-benzyl}-C,C-difluoro-methanesulfonamide]	0.01 to 100	0.01 to 100
CCc1cc(C2CN(S(=O)(=O)C(C)C)C2)ncc1N(C)c1cc2c(cn1)ncn2C [Compound 330, {4-Ethyl-6-[1-(propane-2-sulfonyl)-azetidin-3-yl]-pyridin-3-yl}-methyl-(1-methyl-1H-imidazo[4,5-c]pyridin-6-yl)-amine]	> 1000	> 1000
Cc1ccc(Oc2ccc(C#N)nc2)cc1N(C)c1cc2c(cn1)ncn2C [Compound 91, 5-(4-methyl-3-(methyl(1-methyl-1H-imidazo[4,5-c]pyridin-6-yl)amino)phenoxy)picolino-nitrile]	> 1000	> 1000
CN(c1ccc(O)cc1)c1cc2c(cn1)ncn2C [Compound 17, 4-(methyl(1-methyl-1H-imidazo[4,5-c]pyridin-6-yl)amino)phenol]	101 to 500	> 1000
Cc1ccc(OCCCC#N)cc1N(C)c1cc2c(cn1)ncn2C [Compound 60, 4-(4-methyl-3-(methyl(1-methyl-1H-imidazo[4,5-c]pyridin-6-yl)amino)phenoxy)butane nitrile]	501 to 1000	101 to 500
Cc1cc(-c2cnn(C)c2)ccc1N(C)c1cc2c(cn1)ncn2C [Compound 73, N,1-dimethyl-N-(2-methyl-4-(1-methyl-1H-pyrazol-4-yl)phenyl)-1H-imidazo[4,5-c]pyridin-6-amine]	101 to 500	> 1000
CCc1ccccc1N(CC1CC1)c1cc2c(cn1)ncn2C [Compound 35, N-(cyclopropylmethyl)-N-(2-ethylphenyl)-1-methyl-1H-imidazo[4,5-c]pyridin-6-amine]	101 to 500	501 to 1000
CCc1cn(CCC#N)nc1N(C)c1cc2c(cn1)ncn2C [Compound 316, 3-{4-Ethyl-3-[methyl-(1-methyl-1H-imidazo[4,5-c]pyridin-6-yl)-amino]-pyrazol-1-yl}-propionitrile]	> 1000	> 1000
Cc1ccc(OCc2cccnc2)cc1N(C)c1cc2c(cn1)ncn2C [Compound 61, N,1-dimethyl-N-(2-methyl-5-(pyridin-3-ylmethoxy)phenyl)-1H-imidazo[4,5-c]pyridin-6-amine]	> 1000	> 1000

Results, then the compound that gave them:

IC50 (human TYK2) [nM]	IC50 (human JAK3) [nM]	SMILES
101 to 500	501 to 1000	Cc1cc(O)ccc1N(C)c1cc2c(cn1)ncn2C [Compound 38, 3-Methyl-4-(methyl(1-methyl-1H-imidazo[4,5-c]pyridin-6-yl)amino)phenol]
101 to 500	101 to 500	CCc1cc(CNC(=O)C(F)F)c(F)cc1N(C)c1cc2c(cn1)ncn2C [Compound 326, N-{5-Ethyl-2-fluoro-4-[methyl-(1-methyl-M-imidazo[4,5-c]pyridin-6-yl)-amino]-benzyl}-2,2-difluoro-acetamide]
101 to 500	> 1000	CCc1cc(F)ccc1N(C)c1cc2c(cn1)ncn2C [Compound 28, N-(2-Ethyl-4-fluorophenyl)-N,1-dimethyl-1H-imidazo[4,5-c]pyridin-6-amine]
101 to 500	101 to 500	CCc1cc(Cn2ccnc2)ccc1N(C)c1cc2c(cn1)ncn2C [Compound 111, N-(4-((1H-imidazol-1-yl)methyl)-2-ethylphenyl)-N,1-dimethyl-1H-imidazo[4,5-c]pyridin-6-amine]
0.01 to 100	0.01 to 100	CCc1cc(-c2ccc(Cl)s2)ncc1N(C)c1cc2c(cn1)ncn2C [Compound 304, [6-(5-Chloro-thiophen-2-yl)-4-ethyl-pyridin-3-yl]-methyl-(1-methyl-1H-imidazo[4,5-c]pyridin-6-yl)-amine]
101 to 500	> 1000	CCc1cc(-c2ccc(CNC(=O)OC(C)(C)C)s2)ncc1N(C)c1cc2c(cn1)ncn2C [Compound 302]
0.01 to 100	101 to 500	CCc1cc(C(C)(C)O)ccc1N(C)c1cc2c(cn1)ncn2C [Compound 103, 2-(3-Ethyl-4-(methyl(1-methyl-1H-imidazo[4,5-c]pyridin-6-yl)amino)phenyl)propan-2-ol]
101 to 500	> 1000	CCc1cc(C(=O)OC)ccc1N(C)c1cc2c(cn1)ncn2C [Compound 80, Methyl 3-ethyl-4-(methyl(1-methyl-1H-imidazo[4,5-c]pyridin-6-yl)amino)benzoate]
> 1000	> 1000	CCc1ccc(C(=O)NC(C)(C)C)cc1N(C)c1cc2c(cn1)ncn2C [Compound 123, N-tert-butyl-4-ethyl-3-(methyl(1-methyl-1H-imidazo[4,5-c]pyridin-6-yl)amino)benzamide]
501 to 1000	> 1000	CCc1cc(C(=O)NCCC#N)ccc1N(C)c1cc2c(cn1)ncn2C [Compound 86, N-(2-Cyanoethyl)-3-ethyl-4-(methyl(1-methyl-1H-imidazo[4,5-c]pyridin-6-yl)amino)benzamide]
0.01 to 100	101 to 500	CCc1cc(O)ccc1N(C)c1cc2c(cn1)ncn2C [Compound 107, 3-ethyl-4-(methyl(1-methyl-1H-imidazo[4,5-c]pyridin-6-yl)amino)phenol]
101 to 500	101 to 500	CCc1cc(C(=O)NCC#N)ccc1N(C)c1cc2c(cn1)ncn2C [Compound 120, N-(cyanomethyl)-3-ethyl-4-(methyl(1-methyl-1H-imidazo[4,5-c]pyridin-6-yl)amino)benzamide]
> 1000	> 1000	CCc1cc(C(=O)NCCN(C)C)ccc1N(C)c1cc2c(cn1)ncn2C [Compound 119, N-(2-(dimethylamino)ethyl)-3-ethyl-4-(methyl(1-methyl-1H-imidazo[4,5-c]pyridin-6-yl)amino)benzamide]
101 to 500	501 to 1000	CN(c1cc2c(cn1)ncn2C)c1ccc(CNC(=O)C(F)F)cc1F [Compound 320]
501 to 1000	> 1000	Cc1cc(CO)ccc1N(C)c1cc2c(cn1)ncn2C [Compound 29, (3-Methyl-4-(methyl(1-methyl-1H-imidazo[4,5-c]pyridin-6-yl)amino)phenyl) MeOH]
0.01 to 100	501 to 1000	Cc1cc(-c2cn[nH]c2)ccc1N(C)c1cc2c(cn1)ncn2C [Compound 71, N,1-Dimethyl-N-(2-methyl-4-(1H-pyrazol-4-yl)phenyl)-1H-imidazo[4,5-c]pyridin-6-amine]
0.01 to 100	101 to 500	CCc1cc(OC2CCN(S(C)(=O)=O)C2)ccc1N(C)c1cc2c(cn1)ncn2C (stereo not shown) [Compound 110, N-(2-Ethyl-4-((1-(methylsulfonyl)pyrrolidin-3-yl)oxy)phenyl)-N,1-dimethyl-1H-imidazo[4,5-c]pyridin-6-amine]
501 to 1000	501 to 1000	CCc1cc(C(=O)NCc2ccccc2)ccc1N(C)c1cc2c(cn1)ncn2C [Compound 98, N-benzyl-3-ethyl-4-(methyl(1-methyl-1H-imidazo[4,5-c]pyridin-6-yl)amino)benzamide]
0.01 to 100	0.01 to 100	CCc1cc(-c2ccsc2)ccc1N(C)c1cc2c(cn1)ncn2C [Compound 127, N-(2-ethyl-4-(thiophen-3-yl)phenyl)-N,1-dimethyl-1H-imidazo[4,5-c]pyridin-6-amine]
